Series [1] can be described thus: Phase I metabolic stability assay. Conditions: human.
Experimental: (§1) For this purpose, we used a microsomal stability assay that is a good predictor for phase I metabolic stability.[50]
(§2) Metabolic stability under oxidative conditions was determined by LCMS-based measuring of
(§3) degradation of compounds at 3 µM in human and murine liver microsomes over 60 minutes at 37 °C
(§4) Calculating the compound half-life t1/2, the in vitro intrinsic clearance CLint is
In series [2] the test system is MCF-7. Description: Cell viability assay (CellTiter-Glo). It is filed as cell-based. Conditions: Homo sapiens, MCF7, 120 h, read-out: Cell viability assay EC50. Background: Cellular ATP, detected with luciferase, serves as a proxy for viable cell number.
Experimental: Cell Culture and Viability Assay
(§5) analysis, cells were plated on day 0 into white 384-well cell culture plates (Greiner Bio-One) using a
(§6) Multidrop reagent dispenser (Thermo) at cell numbers that ensure linear and optimal luminescent
(§7) signal intensity (AN3-CA: 800 cells/well; BT-474: 400 cells/well; Dan-G: 400 cells/well; HPAF-II: 400
(§8) cells/well). Then the cells were incubated for 24 h in a humidified atmosphere at 37 °C/5 % CO2. The
(§9) cells were treated with inhibitors in serial dilutions ranging from 30 µM down to 0.1 nM using an Echo
(§10) 520 acoustic liquid handler (Labcyte Inc.). Cell viability was analysed on day 5 using the CellTiter-Glo
(§11) assay (Promega) as per manufacturer’s instructions. Luminescence signal was recorded by an EnVision
(§12) Multilabel 2104 Plate Reader (PerkinElmer) with 500 ms integration time. All data were normalized to
(§13) the plate positive control (30 µM staurosporine) and negative control (DMSO). Finally, the data was
(§14) processed with the Quattro Software Suite using a four parameter logistic model. As a quality control,
(§15) the Z’-factor was calculated from 16 positive and negative control values. Only assay results showing
(§16) a Z’-factor ≥ 0.5 were used for further analysis. All experimental points were measured in duplicates
(§17) for each plate and were replicated in at least three times.
For series [3], the system named is BT-474. The experiment in a line: Cell viability assay (CellTiter-Glo). It is filed as cell-based. The following applies: Homo sapiens, read-out: Cell viability assay EC50.
Experimental: Cell Culture and Viability Assay
as §5, §6, §7, §8, §9, §10, §11, §12, §13, §14, §15, §16, §17
Series [4] has as its system ZR-75-1. The experiment in a line: Cell viability assay (CellTiter-Glo). It is filed as cell-based. The following applies: Homo sapiens, read-out: Cell viability assay EC50.
Experimental: Cell Culture and Viability Assay
as §5, §6, §7, §8, §9, §10, §11, §12, §13, §14, §15, §16, §17
The target of series [5] is T1, full-length Akt (Akt^wt) (Homo sapiens, UniProt P31749). Description: Kinetic characterization by time-dependent IC50 measurements. The series is classed as biochemical. Conditions: from time-dependent IC50.
Experimental: (§18) The biochemical inhibitory activity (IC50) was determined with the HTRF KinEASE assay from Cisbio as
(§19) previously described.1 All reagents for HTRF experiments were purchased from Cisbio Bioassays,
(§20) France. The measurements were analyzed using the Quattro Software Suite for IC50-determination.
(§21) Time-dependent IC50-measurements were performed as described. Briefly, IC50 values were
(§22) determined for twelve different incubation times and afterwards plotted versus accordingly. Data was
(§23) analyzed according to literature procedure.2
The target of series [6] is T1, full-length Akt (Akt^wt). The experiment in a line: HTRF KinEASE activity-based assay, IC50 determination. Conditions: for IC50: HTRF KinEASE. The series is classed as biochemical. In general terms: In TR-FRET formats the signal depends on donor and acceptor labels being close together.
Experimental: as §18, §19, §20, §21, §22, §23
The subject of series [7] is KU-19-19. The experiment in a line: Cell viability assay (CellTiter-Glo). It is filed as cell-based. Conditions: Homo sapiens, read-out: Cell viability assay EC50.
Experimental: Cell Culture and Viability Assay
as §5, §6, §7, §8, §9, §10, §11, §12, §13, §14, §15, §16, §17
For series [8], the system named is T47D. Description: Cell viability assay (CellTiter-Glo). The following applies: Homo sapiens, 120 h, read-out: Cell viability assay EC50. The series is classed as cell-based.
Experimental: Cell Culture and Viability Assay
as §5, §6, §7, §8, §9, §10, §11, §12, §13, §14, §15, §16, §17
Series [9] relates to AN3CA. Description: Cell viability assay (CellTiter-Glo). It is filed as cell-based. Conditions: Homo sapiens, AN3-CA, 120 h, read-out: Cell viability assay EC50.
Experimental: Cell Culture and Viability Assay
as §5, §6, §7, §8, §9, §10, §11, §12, §13, §14, §15, §16, §17
A short description of series [10]: in vitro. Conditions: human, microsomes.
Experimental: as §1, §2, §3, §4
Setting [11] is: 120 h, KU-19-19 (bladder), day 5.

Read-outs that look alike come from different tables or passages of the source.

T1 sequence (P31749 whole entry): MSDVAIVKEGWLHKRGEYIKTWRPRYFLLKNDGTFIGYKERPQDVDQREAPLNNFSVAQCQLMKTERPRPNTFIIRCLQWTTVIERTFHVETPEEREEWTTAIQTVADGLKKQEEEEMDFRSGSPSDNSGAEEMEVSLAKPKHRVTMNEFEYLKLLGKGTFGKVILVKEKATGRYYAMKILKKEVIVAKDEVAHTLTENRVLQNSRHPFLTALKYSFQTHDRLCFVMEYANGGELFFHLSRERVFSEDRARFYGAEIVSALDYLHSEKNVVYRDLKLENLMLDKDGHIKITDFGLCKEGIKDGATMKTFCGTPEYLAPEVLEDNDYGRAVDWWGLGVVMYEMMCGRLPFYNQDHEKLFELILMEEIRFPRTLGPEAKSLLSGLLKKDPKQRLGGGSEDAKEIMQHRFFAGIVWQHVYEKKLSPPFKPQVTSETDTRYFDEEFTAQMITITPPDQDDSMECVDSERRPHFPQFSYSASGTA

What is called half-life is the time needed for the level to fall by half in the phase considered. High values mean slow loss, low ones fast loss. By microsomal CLint is commonly meant the rate of metabolic loss divided by the concentration. High values mean rapid turnover, low ones slow turnover. One may read the EC50 as the concentration giving half of the maximal effect. In series [1] (liver microsomes), `NC1(C(=O)N[C@@H](CCO)c2ccc(Cl)cc2)CCN(c2ncnc3[nH]ccc23)CC1` [Capivasertib, reference compound] displayed a half-life at 1 h, 3 µM of 33 min and an intrinsic metabolic clearance (microsomal CLint) at 3 µM of 14 µL/min/mg. Also, in [2] (MCF-7 (breast), day 5), the EC50 stood at 555 nM. In addition, the EC50 in [3] (120 h, BT-474 (breast), day 5) was 1600 ± 450 nM.
In general, kinact refers to the rate constant of inactivation at saturating inhibitor. Usually kinact/KI stands for the second-order rate constant of inactivation. The IC50 is the concentration needed to halve the response being measured. Low values mean greater potency, high ones weaker potency. For `CN(C)C/C=C/C(=O)Nc1ccc2[nH]c(=O)n(C3CCN(Cc4ccc(-c5nc6cc[nH]c(=O)c6cc5-c5ccccc5)cc4)CC3)c2c1` [24c], the EC50 in [4] (120 h, ZR-75-1 (breast), day 5) worked out at 427 ± 23 nM. In series [5], the Ki was 33 ± 2.4 nM, the kinact was 0.000833 s⁻¹ and the kinact/KI was 25000 ± 5000 M⁻¹ s⁻¹. In addition, in series [6], the “fold loss in inhibitory activity (IC50) compared to 1” value turned out to be 20 fold and it took 18.1 ± 4.9 nM to reach half-maximal inhibition (IC50). In addition, the EC50 in series [7] (setting [11]) was greater than 30 µM. For the same molecule, the EC50 in series [8] (T47D (breast), day 5) was found to be 2110 ± 49 nM.
Regarding `C=CC(=O)Nc1cc(Br)cc(C(=O)NC2CCN(Cc3ccc(-c4nc5cc[nH]c(=O)c5cc4-c4ccccc4)cc3)CC2)c1` [30e], the EC50 in series [4] (120 h, ZR-75-1 (breast), day 5) was 10 ± 3 nM; in [9] (AN3CA (endometrium), day 5) it was 568 ± 106 nM; in [2] (MCF-7 (breast), day 5), 224 ± 88 nM; in series [7] (setting [11]), 6.44 ± 1.24 µM; in series [8] (T47D (breast), day 5), 179 ± 30 nM; in [3] (120 h, BT-474 (breast), day 5), 621 ± 85 nM. The molecule also registered a Ki in [5] of 7.6 ± 1.1 nM. Also, the kinact in series [5] was 0.0013 s⁻¹. For the same molecule, the kinact/KI in series [5] amounted to 168000 ± 25000 M⁻¹ s⁻¹. This molecule also showed an IC50 in [6] of 3.7 ± 0.7 nM. Also, the half-life at 1 h, 3 µM in series [1] (liver microsomes) amounted to 39 min. The molecule also gave a microsomal CLint at 3 µM in series [1] (liver microsomes) of 12 µL/min/mg.
Consider `NC1(c2ccc(-c3nc4ccn5c(=O)[nH]nc5c4cc3-c3ccccc3)cc2)CCC1` [MK-2206, reference compound], for which the 50% effective concentration (EC50) stood at 63 ± 21 nM in [4] (120 h, ZR-75-1 (breast), day 5); 7.05 ± 0.421 µM in series [7] (setting [11]); 1680 ± 316 nM in [3] (120 h, BT-474 (breast), day 5). The half-life at 1 h, 3 µM in [1] (liver microsomes) was determined as 347 min. The microsomal CLint at 3 µM in series [1] (liver microsomes) came out at 1 µL/min/mg.
As for `C=CC(=O)Nc1cccc(CNC2CCN(Cc3ccc(-c4nc5cc[nH]c(=O)c5cc4-c4ccccc4)cc3)CC2)c1` [compound 32], the EC50 worked out at 384 ± 62 nM in [4] (120 h, ZR-75-1 (breast), day 5); 3290 ± 298 nM in series [9] (AN3CA (endometrium), day 5); 2200 ± 125 nM in series [2] (MCF-7 (breast), day 5); 6.75 ± 1.46 µM in [7] (setting [11]); 1900 ± 578 nM in series [8] (T47D (breast), day 5); 4020 ± 912 nM in [3] (120 h, BT-474 (breast), day 5). For the same molecule, the Ki in series [5] is 327 ± 27 nM. Also, the kinact in series [5] is 0.00118 s⁻¹. Further, in [5], the kinact/KI was 4000 ± 1000 M⁻¹ s⁻¹. In [6], this molecule came in with a 50% inhibitory concentration (IC50) of 192 ± 45 nM.
On to `C=CC(=O)Nc1ccc(C(=O)NC2CCN(Cc3ccc(-c4nc5cc[nH]c(=O)c5cc4-c4ccccc4)cc3)CC2)cc1` [30c], for which the half-maximal effective concentration (EC50) in series [4] (120 h, ZR-75-1 (breast), day 5) is 151 ± 47 nM; in series [9] (AN3CA (endometrium), day 5), 3470 ± 1690 nM; in [2] (MCF-7 (breast), day 5) it was 2840 ± 685 nM; in series [8] (T47D (breast), day 5) it was 1360 ± 454 nM; in series [3] (120 h, BT-474 (breast), day 5), 5210 ± 1890 nM. Moreover, in [5], the Ki was determined as 362 ± 74 nM. Besides, the inactivation rate constant (kinact) in series [5] was 0.0007 s⁻¹. Also, the kinact/KI in [5] is 2000 ± 1000 M⁻¹ s⁻¹. The IC50 in [6] amounted to 285 ± 65 nM.
`C=CC(=O)Nc1ccc(N2CCN(Cc3ccc(-c4nc5cc[nH]c(=O)c5cc4-c4ccccc4)cc3)CC2)cc1` [compound 31]: the EC50 in [4] (120 h, ZR-75-1 (breast), day 5) was determined as 116 ± 16 nM; in series [9] (AN3CA (endometrium), day 5), 3610 ± 1290 nM; in [2] (MCF-7 (breast), day 5), 1220 ± 58 nM; in [8] (T47D (breast), day 5), 832 ± 81 nM; in series [3] (120 h, BT-474 (breast), day 5), 4620 ± 1060 nM.
Turning to `C=CC(=O)Nc1ccc(C(=O)NC2CCN(Cc3ccc(-c4nc5cc[nH]c(=O)c5cc4-c4ccccc4)cc3)CC2)c(F)c1` [30d], the half-maximal effective concentration (EC50) in series [4] (120 h, ZR-75-1 (breast), day 5) was 73 ± 25 nM; in series [9] (AN3CA (endometrium), day 5), 1310 ± 158 nM; in series [2] (MCF-7 (breast), day 5) it was 2440 ± 1020 nM; in series [7] (setting [11]), 6.07 ± 1.1 µM; in [8] (T47D (breast), day 5), 546 ± 87 nM; in series [3] (120 h, BT-474 (breast), day 5) it was 1960 ± 391 nM. In [5], this molecule came in with a Ki of 98.6 ± 10 nM. Besides, in series [5], the kinact was 0.00142 s⁻¹. The kinact/KI in [5] was determined as 14000 ± 2000 M⁻¹ s⁻¹. Besides, in [6], the IC50 was 52.8 ± 16.3 nM.
With `C=CC(=O)Nc1ccc(C(=O)NC2CCN(Cc3ccc(-c4nc5cc[nH]c(=O)c5cc4-c4ccccc4)cc3)CC2)s1` [30f], the EC50 worked out at 33 ± 9 nM in series [4] (120 h, ZR-75-1 (breast), day 5); 879 ± 223 nM in series [9] (AN3CA (endometrium), day 5); 1190 ± 518 nM in series [2] (MCF-7 (breast), day 5); 3.06 ± 0.848 µM in series [7] (setting [11]); 183 ± 52 nM in series [8] (T47D (breast), day 5); 1100 ± 212 nM in series [3] (120 h, BT-474 (breast), day 5). Besides, the Ki in series [5] worked out at 39.3 ± 6.6 nM. Besides, the kinact in [5] is 0.00147 s⁻¹. The kinact/KI in series [5] was 38000 ± 7000 M⁻¹ s⁻¹. In [6], this molecule yielded an IC50 of 14 ± 6.1 nM. In series [1] (liver microsomes), this molecule returned a half-life at 1 h, 3 µM of 39 min. In series [1] (liver microsomes), this molecule showed a microsomal CLint at 3 µM of 12 µL/min/mg.
`C=CC(=O)Nc1ccccc1C(=O)NC1CCN(Cc2ccc(-c3nc4cc[nH]c(=O)c4cc3-c3ccccc3)cc2)CC1` [30a]: the 50% effective concentration (EC50) in [4] (120 h, ZR-75-1 (breast), day 5) came out at 22 ± 7 nM; in [9] (AN3CA (endometrium), day 5) it was 1330 ± 60 nM; in series [2] (MCF-7 (breast), day 5), 1020 ± 621 nM; in [7] (setting [11]), 5.54 ± 1.51 µM; in series [8] (T47D (breast), day 5), 41 ± 19 nM; in [3] (120 h, BT-474 (breast), day 5), 2270 ± 700 nM. The molecule also showed a Ki in series [5] of 27.2 ± 4.2 nM. For the same molecule, the kinact in series [5] was 0.0023 s⁻¹. In [5], the kinact/KI was determined as 85000 ± 18000 M⁻¹ s⁻¹. The same molecule returned an IC50 in series [6] of 10.8 ± 2.5 nM.
Take `C=CC(=O)Nc1cc2c(cc1Cl)[nH]c(=O)n2C1CCN(Cc2ccc(-c3nc4cc[nH]c(=O)c4cc3-c3ccccc3)cc2)CC1` [24a]: the EC50 in series [4] (120 h, ZR-75-1 (breast), day 5) was determined as 2 nM; in series [9] (AN3CA (endometrium), day 5), 159 ± 70 nM; in [2] (MCF-7 (breast), day 5) it was 138 ± 81 nM; in series [7] (setting [11]), 2.31 ± 0.908 µM; in [8] (T47D (breast), day 5), 25 ± 7 nM; in series [3] (120 h, BT-474 (breast), day 5), 259 ± 68 nM. Further, the half-life at 1 h, 3 µM in series [10] worked out at 87 min. The microsomal CLint at 3 µM in series [10] stood at 5 µL/min/mg. This molecule also displayed an IC50 in series [6] of 1.2 ± 0.3 nM.
`CC(C)NC[C@@H](C(=O)N1CCN(c2ncnc3c2[C@H](C)C[C@H]3O)CC1)c1ccc(Cl)cc1` [Ipatasertib, reference compound]: the EC50 in series [4] (ZR-75-1, 120 h) stood at 219 ± 83 nM; in [9], 925 ± 457 nM; in series [2] it was 5040 ± 1830 nM; in series [8] (T47D) it was 443 ± 6 nM; in series [3] (BT-474, 120 h), 2370 ± 745 nM. The half-life at 1 h, 3 µM in [1] (liver microsomes) is 39 min. For the same molecule, in series [1] (liver microsomes), the microsomal CLint at 3 µM is 12 µL/min/mg.
In the case of `COc1cccc2c1C(=O)c1c(O)c3c(c(O)c1C2=O)C[C@@](O)(C(=O)CO)C[C@@H]3O[C@H]1C[C@H](N)[C@H](O)[C@H](C)O1` [Doxorubicin, reference compound], the 50% effective concentration (EC50) in series [4] (120 h, ZR-75-1 (breast), day 5) was 100 ± 26 nM; in series [9] (AN3CA (endometrium), day 5), 30 ± 9 nM; in series [2] (MCF-7 (breast), day 5), 153 ± 9 nM; in series [7] (setting [11]), 0.072 ± 0.008 µM; in series [8] (T47D (breast), day 5) it was 127 ± 40 nM; in series [3] (120 h, BT-474 (breast), day 5) it was 623 ± 134 nM.
In turn, `C=CC(=O)Nc1ccc2[nH]c(=O)n(C3CCN(Cc4ccc(-c5nc6cc[nH]c(=O)c6cc5-c5ccccc5)cc4)CC3)c2c1` [compound 1, borussertib] gave a half-life at 1 h, 3 µM in series [1] (microsomes) of 99 min. The same molecule returned a microsomal CLint at 3 µM in [1] (microsomes) of 5 µL/min/mg. For the same molecule, the EC50 in [2] is 277 ± 90 nM; in series [7] (KU-19-19, 120 h), 7.77 ± 0.641 µM; in series [3] (BT-474, 120 h) it was 373 ± 54 nM.

The values are drawn from article PMC6430017, “Structural and chemical insights into the covalent-allosteric inhibition of the protein kinase Akt” (Chemical Science, 2019).
